Assay results reported in the supplement of paper PMC11208160.

Assay: recombinant barcode read abundance after kanamycin selection (control-corrected) (log10(CPM+1)); higher = more efficient recombination; sequences stand for … in AGTGCAGAGAAAATCGGCCAGTTTTCTCTGCCTGCAGTCCGCATGCCGT…AGATTTATGCAGCGGACTGCCTTTCTCCCAAAGTGATAAACCGGACAGTATCATGGACCGGTTTTCCCGGTAATCCGTATTTGCAAGGTTGGTTTCACT; site = the 11-nt target
Procedure, shortened: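 Duplicate cultures were plated either on chloramphenicol/ampicillin LB agar, serving as control, or on chloramphenicol/ampicillin/kanamycin with 0.1 mM IPTG. These came from a pooled E. coli library co-electroporated with a donor plasmid, each member pairing a target with an IS621 bridge RNA target-binding loop. Recombination efficiency equals averaged, control-corrected counts per million of recombinant-junction barcodes. It is listed as log10(CPM+1).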
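Also: IS621 recombinase and bridge RNA in Escherichia coli cells.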

| Sequence | recombinant barcode read abundance (log10) |
| --- | --- |
| AGTCGGACTTGGGTTCTAACCTGTTGCTT (site AGTCATACTAA) | 0.446 |
| AGTCGGACTTGGGTTCTAACCTGTTGCTT (site AGTCGGACTAA) | 0.517 |
| AGTCGTACTTGGGTTCTAACCTGTTGCCT (site AGACGTACTAG) | 0.166 |
| AGTCGTACTTGGGTTCTAACCTGTTGCCT (site AGCCGTACTAG) | 0.213 |
| AGTCGTACTTGGGTTCTAACCTGTTGCCT (site AGGCGTACTAG) | 0.0589 |
| AGTCGTACTTGGGTTCTAACCTGTTGCCT (site AGTCGTACTAG) | 0.536 |
| AGTCTAGCTTGGGTTCTAACCTGTTGCCA (site AGTCTAGCTAG) | 0.176 |
| AGTCTAGCTTGGGTTCTAACCTGTTGCCA (site AGTCTAGCTCG) | 0.217 |
| AGTCTAGCTTGGGTTCTAACCTGTTGCCA (site AGTCTAGCTGG) | 0.548 |
| AGTCTAGCTTGGGTTCTAACCTGTTGCCA (site AGTCTAGCTTG) | 0.493 |
| AGTCTAGCTTGGGTTCTAACCTGTTGCGG (site AGGATAGCTCC) | 0.479 |
| AGTCTAGCTTGGGTTCTAACCTGTTGCGG (site AGTCTAGCTCC) | 1.33 |
| AGTCTGCCTTGGGTTCTAACCTGTTGCCT (site AGTCTGCCTAG) | 0.427 |
| AGTCTGCCTTGGGTTCTAACCTGTTGCCT (site CGTCTGCCTAG) | 0.0547 |
| AGTCTGCCTTGGGTTCTAACCTGTTGCCT (site GGTCTGCCTAG) | 0.0978 |
| AGTCTGCCTTGGGTTCTAACCTGTTGCCT (site TGTCTGCCTAG) | 0.0318 |
| AGTGAACCTTGGGTTCTAACCTGTTGCCT (site AGCTAACCTAG) | 0.013 |
| AGTGAACCTTGGGTTCTAACCTGTTGCCT (site AGTGAACCTAG) | 1.84 |

| Sequence | recombinant barcode read abundance (log10) |
| --- | --- |
| AGTGAATCTTGGGTTCTAACCTGTTGCCT (site AGAGAATCTAG) | 0.13 |
| AGTGAATCTTGGGTTCTAACCTGTTGCCT (site AGCGAATCTAG) | 0.249 |
| AGTGAATCTTGGGTTCTAACCTGTTGCCT (site AGGGAATCTAG) | 0.286 |
| AGTGAATCTTGGGTTCTAACCTGTTGCCT (site AGTGAATCTAG) | 0.541 |
| AGTGCGTCTTGGGTTCTAACCTGTTGCCT (site AGTGCGTCTAG) | 1.52 |
| AGTGCGTCTTGGGTTCTAACCTGTTGCCT (site CGTGCGTCTAG) | 0.043 |
| AGTGCGTCTTGGGTTCTAACCTGTTGCCT (site GGTGCGTCTAG) | 0.241 |
| AGTGCGTCTTGGGTTCTAACCTGTTGCCT (site TGTGCGTCTAG) | 0.0164 |
| AGTGCTCCTTGGGTTCTAACCTGTTGCGG (site AGAGCTCCTCC) | 0.196 |
| AGTGCTCCTTGGGTTCTAACCTGTTGCGG (site AGTGCTCCTCC) | 0.18 |
| AGTGTCACTTGGGTTCTAACCTGTTGCGG (site AGTGTCACTCC) | 2.77 |
| AGTGTCACTTGGGTTCTAACCTGTTGCGG (site GTGCAACCTAG) | 0.0283 |
| AGTTAATCTTGGGTTCTAACCTGTTGCTT (site AGCTACTCTAA) | 0.0347 |
| AGTTAATCTTGGGTTCTAACCTGTTGCTT (site AGTTAATCTAA) | 0.0371 |
| AGTTAGTCTTGGGTTCTAACCTGTTGCGG (site AATTAGTCTCC) | 0.00949 |
| AGTTAGTCTTGGGTTCTAACCTGTTGCGG (site AGTTAGTCTCC) | 1.43 |
| AGTTGCTCTTGGGTTCTAACCTGTTGCCT (site AGTTGCTCTAG) | 0.468 |
| AGTTGCTCTTGGGTTCTAACCTGTTGCCT (site GGTTGCACTAG) | 0.268 |
